# From US10975049B2, “Nicotinyl alcohol ether derivative, preparation method therefor, and pharmaceutical composition and uses thereof” (Institute of Materia Medica, Chinese Academy of Medical …, priority 2016, dated 2021)
# Key:
# [1] = biological target: T1, PD-L1 protein (Homo sapiens (Human), UniProt Q9NZQ7); test: Relieving the inhibition of IFNγ by ligand PD-L1 in human PBMC; type: cell-based; details: 72 h
# Protocol: The expression level of IFNγ can reflect the proliferative activity of T lymphocytes. Using the extracted human PBMC (peripheral blood mononuclear cell), on the basis that T lymphocyte could be activated by the anti-CD3/anti-CD28 antibody, the ligand PD-L1 was added to the inhibit T lymphocyte, the example compounds' capacity of relieving the inhibition by the PD-L1 was investigated.
# The specific procedure is as follows. DAKEWE human lymphocyte separation solution (DKW-KLSH-0100) was used to extract PBMC from human whole blood, and PBMC was inoculated into 96 well plate, with 3×10^5 cells per well. […] After 72 h, the expression level of IFNγ in the supernatant was detected by Cisbio IFNγ test kit.
# [2] = biological target: T1, PD-L1 protein; test: Interaction with PD-L1 protein tested by Biacore (SPR); type: binding
# Source text: Surface plasmon is a kind of electromagnetic wave on the surface of metal, produced by the interaction of photon and electron in free vibration. Surface plasmon resonance (SPR) is an optical phenomenon that occurs on the surface of two kinds of media, which can be induced by photon or electron. The phenomenon of total reflection of light from light dense medium into light scattering medium will form evanescent wave into light scattering medium. When the total reflected evanescent wave meets the plasma wave on the metal surface, the resonance may occur, and the energy of reflected light decreases and the resonance peak appears on the reflected light energy spectrum. This resonance is called the surface plasmon resonance. The incident angle of the surface plasmon resonance is called the SPR angle. The SPR biosensor provides a sensitive, real-time, non-label detection technique for monitoring the interaction of molecules. The sensor detects the change of the SPR angle, and SPR is also related to the refractive index of the metal surface. When an analyte is bond on the surface of the chip, it leads to the change of the refractive index of the chip surface, which leads to the change of the SPR angle. […] In the interaction analysis, the change of SPR angle is recorded on the sensor map in real time. […]
# [3] = system: high metastatic melanoma B16F10; test: Lung metastasis model of high metastatic melanoma B16F10; type: in vivo, C57BL/6 mice; details: for Tumor number X ± SD: lung; for TGI % (tumor growth inhibition rate): tumor number
# Protocol: The method in B16F10 lung metastasis model was as follows. The cultured B16F10 tumor cells were digested and centrifuged and washed for two times with sterile physiological saline and then counted. And the cell concentration was adjusted to 2.5×10^6/ml by physiological saline. 0.2 ml of cells were injected into the C57BL/6 mice through the tail vein, and the tumor cells will gather in the lung of the mice. After inoculation, the animals were randomly divided into two groups in next day. Each group had 6-7 mice. After weighing, the animals were dosed once each day. After 3 weeks, the mice were weighed and killed, the lung tissue was collected and weighed, and the number of lung tumors was counted after being fixed by the Bouin's Fluid. Finally, the tumor growth inhibition rate was calculated, and the tumor growth inhibition rate was used to evaluate the level of anti-tumor effect.
# (§1) In the study of the mechanism of the above models, the method of flow cytometry was adopted in measuring the total cell proportion of T cells of various types. The specific steps were as follows. The samples were treated at first. For blood tissue, the orbital blood was taken. The red cell lysate was used to remove the red blood cells, and then the PBS buffer was used for wash. After being washed, the cells were collected. For the tumor and spleen, the tissues were grinded with a homogenizer, and then diluted with PBS buffer, then filtered by 300 meshes of screen. After the number of cells was counted for each sample, 1×10^6 cells were added into EP tube and stained for flow antibody. After incubation for 1 h on ice, each sample was washed 2 times with PBS buffer. The cell population was analyzed by VERSE flow instrument of BD Company. The total number of cells in tumor tissue was 1×10^5 and the total number of cells in blood and spleen tissues was 1×10^4. The ratio of T cells to total number of cells was analyzed after flow cytometry.
# [4] = system: mouse colon cancer MC38; test: Subcutaneous xenograft model of mouse colon cancer MC38; type: in vivo, C57BL/6 or Bablc mice
# Protocol: (§2) The method in subcutaneous xenograft tumor was as follows. The cultured specific tumor cells were digested and collected by centrifugation, and washed with sterile physiological saline for two times and then counted. The cell concentration was adjusted to 5×10^6/ml by physiological saline, and 0.2 ml of cell suspension was inoculated to the right armpit of C57BL/6 or Bablc mice. After inoculation, the animals were randomly divided into two groups in next day. Each group had 6-7 mice. After weighing, the animals were dosed once each day to monitor tumor size. When the tumor size reached to a certain size, the mice was weighed and blood was collected from mice orbit and then the mice were killed by removing the neck. The tumor tissue, thymus tissue and spleen tissue were collected and weighed respectively. Finally, the tumor growth inhibition rate was calculated, and the tumor growth inhibition rate was used to evaluate the level of anti-tumor effect.
# [5] = system: high metastatic melanoma B16F10; test: Subcutaneous xenograft model of high metastatic melanoma B16F10; type: in vivo, C57BL/6 or Bablc mice; details: for TGI % (tumor growth inhibition rate): tumor weight
# Protocol: as §2, §1
# [6] = system: mouse breast cancer EMT6; test: Subcutaneous xenograft model of mouse breast cancer EMT6; type: in vivo, C57BL/6 or Bablc mice
# Protocol: as §2
# [7] = system: Lewis lung cancer; test: Mouse Lewis lung cancer hydrothorax model; type: in vivo, C57BL/6 mice; details: 10 mg
# Protocol: The method in Lewis lung cancer hydrothorax model was as follows: The subcutaneous xenograft tumor of Lewis lung cancer was homogenized and washed for two times with sterile physiological saline, and the cell concentration was adjusted to 2.5×10^5/ml by physiological saline. 0.2 ml of cells were injected into the thoracic cavity of C57BL/6 mice. After inoculation, the animals were randomly divided into two groups in next day. Each group had 6-7 mice. After weighing, the animals were dosed once each day. Animals were sacrificed when the weight of the animals in the control group suddenly dropped. The liquid in thoracic cavity was extracted with syringe and the volume of fluid was recorded.
# T1 sequence (Q9NZQ7 19-290): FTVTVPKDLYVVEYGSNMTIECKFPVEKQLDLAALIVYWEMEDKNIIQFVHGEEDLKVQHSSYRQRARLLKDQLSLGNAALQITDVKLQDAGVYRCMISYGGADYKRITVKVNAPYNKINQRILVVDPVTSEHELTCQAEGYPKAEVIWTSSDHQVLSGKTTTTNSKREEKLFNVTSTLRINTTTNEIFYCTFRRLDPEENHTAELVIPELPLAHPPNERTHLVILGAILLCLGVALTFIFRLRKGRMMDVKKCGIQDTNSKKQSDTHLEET
smiles,measurement,setting,value
"O=C(O)[C@H](CO)NCc1cc(Cl)c(OCc2cccc(-c3ccccc3)c2Br)cc1OCc1cccnc1 [Example 4, (S)—N-(4-(2-bromo-3-phenylbenzyloxy)-5-chloro-2-(pyridin-3-yl-methyleneoxy)benzyl) serine]",IC50,[1],0.18 nM
same,relief of the inhibition of PD-L1 to expression level of IFNγ,[1]; at 10 nM,partially relieved
same,kd,"[2]; PBS-P+, pH7.4, 0.01% DMSO, NTA chip",2.815e-05 s⁻¹
same,Kd,"[2]; unit inferred, read-out: affinity kD value",0.0203 nM
same,percentage of lymphocyte in mouse blood,[3]; result in words,increase
same,TGI % (tumor growth inhibition rate),[4]; 2.5 mg/kg,102.3%
same,Tumor weight(g) Mean ± SD,[4]; 2.5 mg/kg,3.25 ± 0.61 g
same,Body weight (g) Mean ± SD Begin,"[4]; 2.5 mg/kg, begin",18.0 ± 0.4 g
same,Body weight (g) Mean ± SD End,[4]; 2.5 mg/kg,21.9 ± 0.7 g
same,TGI % (tumor growth inhibition rate),[4]; 5 mg/kg,12.7%
same,Tumor weight(g) Mean ± SD,[4]; 5 mg/kg,2.78 ± 0.44 g
same,Body weight (g) Mean ± SD End,[4]; 5 mg/kg,22.8 ± 0.6 g
same,TGI % (tumor growth inhibition rate),[4]; 10 mg/kg,32.7%
same,Tumor weight(g) Mean ± SD,[4]; 10 mg/kg,2.14 ± 0.78 g
same,Body weight (g) Mean ± SD End,[4]; 10 mg/kg,21.5 ± 0.8 g
same,TGI % (tumor growth inhibition rate),[4]; 20 mg/kg,41.2%
same,Tumor weight(g) Mean ± SD,[4]; 20 mg/kg,1.87 ± 0.90 g
same,Body weight (g) Mean ± SD End,[4]; 20 mg/kg,20.9 ± 1.1 g
"O=C([O-])[C@H](CO)NCc1cc(Cl)c(OCc2cccc(-c3ccccc3)c2Br)cc1OCc1cccnc1.[Na+] [Example 4 sodium salt, (S)-Sodium N-(4-(2-bromo-3-phenylbenzyloxy)-5-chloro-2-(pyridin-3-yl-methyleneoxy)benzyl) serinate]",Tumorweight(g) X ± SD,[5]; 15 mg/kg,0.93 ± 0.89 g
same,Body weight (g) Mean ± SD Begin,[5]; 15 mg/kg,20.3 ± 0.4 g
same,Body weight (g) Mean ± SD End,[5]; 15 mg/kg,21.8 ± 2.1 g
same,TGI % (tumor growth inhibition rate),[5]; 15 mg/kg,64.11%
same,Tumorweight(g) X ± SD,[5]; 45 mg/kg,2.57 ± 0.85 g
same,Body weight (g) Mean ± SD Begin,[5]; 45 mg/kg,20.4 ± 0.9 g
same,Body weight (g) Mean ± SD End,[5]; 45 mg/kg,23.8 ± 1.4 g
same,TGI % (tumor growth inhibition rate),[5]; 45 mg/kg,0.23%
same,proportion of lymphocytes in the spleen samples,[5]; result in words,increase
same,proportion of tumor-infiltrating lymphocytes,[5]; result in words,increase
same,CD4+ (%) T lymphocytes in spleen,"[5]; spleen, 15 mg",27.0 ± 1.8%
same,CD8+ (%) T lymphocytes in spleen,"[5]; spleen, 15 mg",13.6 ± 1.8%
same,CD3+ (%) tumor-infiltrating T lymphocytes,"[5]; tumor, 15 mg",13.3 ± 6.9%
same,CD4+ (%) tumor-infiltrating T lymphocytes,"[5]; tumor, 15 mg",7.2 ± 3.4%
same,CD8+ (%) tumor-infiltrating T lymphocytes,"[5]; tumor, 15 mg",3.9 ± 1.4%
same,TGI % (tumor growth inhibition rate),[6]; 1.5 mg/kg,13.1%
same,Tumorweight(g) X ± SD,[6]; 1.5 mg/kg,1.5 ± 0.61 g
same,Body weight (g) Mean ± SD Begin,[6]; 1.5 mg/kg,18.4 ± 0.9 g
same,Body weight (g) Mean ± SD End,[6]; 1.5 mg/kg,22.0 ± 1.6 g
same,TGI % (tumor growth inhibition rate),[6]; 5 mg/kg,20.2%
same,Tumorweight(g) X ± SD,[6]; 5 mg/kg,1.37 ± 0.23 g
same,Body weight (g) Mean ± SD Begin,[6]; 5 mg/kg,18.4 ± 0.4 g
same,Body weight (g) Mean ± SD End,[6]; 5 mg/kg,21.0 ± 1.6 g
same,TGI % (tumor growth inhibition rate),[6]; 10 mg/kg,22.3%
same,Tumorweight(g) X ± SD,[6]; 10 mg/kg,1.34 ± 0.34 g
same,Body weight (g) Mean ± SD Begin,[6]; 10 mg/kg,18.4 ± 0.6 g
same,Body weight (g) Mean ± SD End,[6]; 10 mg/kg,21.6 ± 1.3 g
same,TGI % (tumor growth inhibition rate),[6]; 15 mg/kg,14.7%
same,Tumorweight(g) X ± SD,[6]; 15 mg/kg,1.47 ± 0.65 g
same,Body weight (g) Mean ± SD Begin,[6]; 15 mg/kg,18.5 ± 0.4 g
same,Body weight (g) Mean ± SD End,[6]; 15 mg/kg,22.0 ± 1.1 g
same,inhibition effect on mouse breast cancer EMT6,[6]; dose of 10 mg,20%
same,inhibition effect on mouse breast cancer EMT6,[6]; dose of 15 mg,22%
same,number of lung metastases,"[3]; 15 mg/kg dose, result in words",significantly inhibit
same,Body weight (g) Mean ± SD Begin,[3]; 15 mg/kg,20.1 ± 0.9 g
same,Body weight (g) Mean ± SD End,[3]; 15 mg/kg,21.5 ± 1.2 g
same,Tumor number X ± SD,[3]; 15 mg/kg,12 ± 3
same,TGI % (tumor growth inhibition rate),[3]; 15 mg/kg,42.3%
same,Body weight (g) Mean ± SD Begin,[3]; 45 mg/kg,20.3 ± 0.6 g
same,Body weight (g) Mean ± SD End,[3]; 45 mg/kg,21.4 ± 0.3 g
same,Tumor number X ± SD,[3]; 45 mg/kg,19 ± 15
same,TGI % (tumor growth inhibition rate),[3]; 45 mg/kg,9.5%
same,CD3+ percentage of T lymphocyte in mouse blood,[3]; 15 mg,29.0 ± 3.7%
same,CD4+ percentage of T lymphocyte in mouse blood,[3]; 15 mg,17.8 ± 2.4%
same,CD8+ percentage of T lymphocyte in mouse blood,[3]; 15 mg,9.6 ± 0.8%
same,CD3+ percentage of T lymphocyte in mouse blood,[3]; 45 mg,23.2 ± 3.6%
same,CD4+ percentage of T lymphocyte in mouse blood,[3]; 45 mg,14.7 ± 2.5%
same,CD8+ percentage of T lymphocyte in mouse blood,[3]; 45 mg,7.6 ± 1.3%
same,antitumor effect in combination with Cyclophosphamide (CTX),[4]; result in words,synergistic antitumor effect
same,inhibition effect on subcutaneous xenograft of MC38,[4]; result in words,significant inhibition effect
same,hydrothorax incidence rate,[7],33%
same,hydrothorax volume (mean),[7],0.2 mL
same,hydrothorax incidence rate,[7]; listed as sodium salt of Example 4 compound,33%
